The text below walks through data of ChEMBL document CHEMBL3085700 (J Med Chem, 2013).

Calls of active or inactive are those of the source. The calls are words filed in the database; no cut-off is given here.

For experiment [1], the target named is T1, Prostaglandin G/H synthase 2 (Homo sapiens) (UniProt P35354).
T1 sequence (whole entry): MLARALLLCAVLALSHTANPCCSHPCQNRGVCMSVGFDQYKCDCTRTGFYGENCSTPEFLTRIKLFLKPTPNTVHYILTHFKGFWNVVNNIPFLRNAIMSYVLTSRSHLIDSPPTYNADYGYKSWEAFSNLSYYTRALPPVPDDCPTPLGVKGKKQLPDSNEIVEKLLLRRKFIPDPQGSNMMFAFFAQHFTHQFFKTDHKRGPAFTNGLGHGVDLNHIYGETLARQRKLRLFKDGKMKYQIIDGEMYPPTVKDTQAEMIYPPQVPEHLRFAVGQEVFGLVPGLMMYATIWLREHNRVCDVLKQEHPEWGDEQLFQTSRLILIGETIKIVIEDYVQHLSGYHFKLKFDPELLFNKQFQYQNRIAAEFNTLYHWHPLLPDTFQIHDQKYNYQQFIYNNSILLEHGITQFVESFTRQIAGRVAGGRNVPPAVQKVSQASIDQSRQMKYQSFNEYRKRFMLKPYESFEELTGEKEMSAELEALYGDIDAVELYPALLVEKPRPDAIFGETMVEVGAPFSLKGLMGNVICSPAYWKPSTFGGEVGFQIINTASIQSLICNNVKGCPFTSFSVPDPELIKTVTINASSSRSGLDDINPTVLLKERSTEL
The experiment is described as follows: Inhibition of human recombinant COX-2 assessed as inhibition of 2-AG cyclooxygenation at 100 uM measured within 10 to 50 secs relative to control.

Experiment [2] concerns the target T2, Monoacylglycerol lipase ABHD6 (Mus musculus) (UniProt Q8R2Y0).
T2 sequence (whole entry): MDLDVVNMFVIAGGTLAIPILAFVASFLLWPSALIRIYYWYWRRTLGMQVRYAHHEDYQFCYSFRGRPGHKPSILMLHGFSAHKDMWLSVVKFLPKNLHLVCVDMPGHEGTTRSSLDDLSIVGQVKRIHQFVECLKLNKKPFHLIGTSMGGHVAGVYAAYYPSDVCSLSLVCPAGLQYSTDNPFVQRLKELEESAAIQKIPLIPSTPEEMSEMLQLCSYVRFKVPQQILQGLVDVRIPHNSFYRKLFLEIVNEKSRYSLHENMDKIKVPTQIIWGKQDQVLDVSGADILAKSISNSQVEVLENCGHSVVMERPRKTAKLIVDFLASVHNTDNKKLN
The experiment is described as follows: Inhibition of TAMRA-FP-labeled ABHD6 in mouse brain membrane at 10 uM after 1 hr by fluorescent gel scanning assay. Type of experiment: cell membranes.

Experiment [3] in a line: Selectivity ratio for human recombinant FAAH over ovine COX-1.
Experiment [4] has as its target T3, Monoacylglycerol lipase ABHD6 (Homo sapiens) (UniProt Q9BV23).
T3 sequence (whole entry): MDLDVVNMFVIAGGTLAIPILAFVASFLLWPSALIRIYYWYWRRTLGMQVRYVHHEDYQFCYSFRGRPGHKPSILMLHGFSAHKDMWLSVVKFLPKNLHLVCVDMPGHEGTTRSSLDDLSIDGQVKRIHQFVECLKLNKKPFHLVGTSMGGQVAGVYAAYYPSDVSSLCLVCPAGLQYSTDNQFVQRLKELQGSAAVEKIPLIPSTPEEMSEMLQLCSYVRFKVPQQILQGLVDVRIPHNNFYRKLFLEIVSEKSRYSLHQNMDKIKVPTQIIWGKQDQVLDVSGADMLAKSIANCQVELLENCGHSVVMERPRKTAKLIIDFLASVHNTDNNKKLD
The experiment is described as follows: Inhibition of human ABHD6 overexpressed in HEK293 cells assessed as 2-AG hydrolysis at 1 uM by fluorescent glycerol assay. Type of experiment: cell-based.

For experiment [5], the species on record is Homo sapiens. The experiment is described as follows: Selectivity ratio for human recombinant FAAH over human recombinant MAGL.
Experiment [6] deals with T1, Prostaglandin G/H synthase 2 (Homo sapiens). The experiment is described as follows: Inhibition of human recombinant COX-2 using arachidonic acid as substrate assessed as oxygen consumption at 30 to 100 uM measured within 10 to 50 secs relative to control.
Experiment [7] is filed under the species Homo sapiens. The experiment is described as follows: Selectivity ratio for human recombinant FAAH over human recombinant COX-2.
Experiment [8] deals with T1, Prostaglandin G/H synthase 2 (Homo sapiens). The experiment is described as follows: Inhibition of human recombinant COX-2 assessed as inhibition of 2-AG cyclooxygenation at 30 uM measured within 10 to 50 secs relative to control.

By inhibition is commonly meant the change of the read-out against control, counted positive when it falls. On to `COc1nn([C@@H](C)c2ccc(CC(C)C)cc2)c(=O)o1`, for which the inhibition worked out at 30% in experiment [1], 30% in experiment [6] and 20% in experiment [8]. The inhibition entry in experiment [2] and in experiment [4] was “inactive” each time. For the same compound, the Selectivity ratio in experiment [3], in experiment [5] and in experiment [7] was > 900 each time.
